# Results as given in patent publication US20150004631A1, “Plasmodium falciparum HLA class I restricted T-cell epitopes” (priority 2013, published 2015).
# No end group written: not given here.
# Columns and labels:
# Assay type in all cases: cell-based, human
# PBMC [1] = test: ELISpot IFN-γ assay, PBMC of Ad5-PfCA immunized volunteers (Gp1); conditions: for ELISpot activity of 15 mer peptide: v005, 1 month PBMC
# Description: […] In these studies, IFN-γ activity was measured in response to exposure to the peptide pools. The assays were conducted essentially as described by Wang, et al., Proc. Natl. Acad. Sci. (U.S.A.), 98: 10817-22.
# The stimulation of circulating antigen-specific T cell lymphocytes was evaluated by measurement of γ-IFN induction by ELISPOT. The ELISpot assay was conducted using thawed cryopreserved PBMC at 200K cells per well. Pre-challenge cells were taken at day 21 and day 22 post AdPfCA vaccination. Cells were suspended in […] complete medium and were stimulated with AMA1 peptides suspended in […] of complete medium. Peptide concentrations used in assays was 10 μg/ml of each peptide tested. Cultures were incubated for 36 h at 37° C., 5% CO2. Depending on availability of cells, each PBMC sample was assayed in duplicate, triplicate, or quadruplicate and the number of IFN-γ-secreting cells recognized as spot-forming cells (SFC) was enumerated using an automated ELISpot reader. In duplicate assays, all values were used in analysis. For triplicate or quadruplicate assays, outliers were rejected if any single value contributed more than 50% of the standard deviation of the triplicate (or quadruplicate) and if its value was three-fold greater or less than the average of the remaining two (or three) values. The mean spot forming cells (SFCs) obtained in negative control wells were subtracted from the value of each test well from the same sample. Negative counts generated by this background subtraction were converted to zero. The mean spot number of the test sample was then calculated and expressed as SFC/million PBMCs. Values obtained with pre-vaccinated samples were subtracted from the post-vaccination values.
# CD4+ and CD8+ T cells = test: Intracellular cytokine staining (ICS) of PBMC; conditions: for CD8^+ T cell IFN-γ response in ICS: HLA-matched volunteers, compared with parent peptide pool, FIG. 1 upper panel; for multifunctional CD8^+ T cell responses in ICS: v008 and v012, any two of IFN-γ, IL-2, TNF-α, FIG. 1 lower panel
# Description: ICS was performed on PBMCs with costimulatory antibodies anti-CD28 and […] (obtained from BD Bioscience™, San Jose, Calif.). The peptides were used at the same concentrations as in ELISpot assays. Stimulants were added t cells and incubated at 37° C. with 5% CO2 for 2 hr. Golgi Plug™ (Brefeldin A) (BD Bioscience™, San Jose, Calif.) was added at a final concentration of 0.6 μL/mL and incubated at 37° C. with 5% CO2 overnight. Cells were stained with anti-CD3 (Alexa Fluor 700™), anti-CD4 (PerCP™), and anti-CD8 Pacific Blue™ (obtained from BD Bioscience™, San Jose, Calif.). and 1 μg/mL of live/dead fixable blue dye, incubated and washed. Cells were permeabilized with Cytofix/Cytoperm™ solution (obtained from BD Bioscience™, San Jose, Calif.), incubated and washed. Cells were stained intracellularly with anti-CD3 (Alexa Fluor 700™), anti-CD4 (PerCP™), and anti-CD8 Pacific Blue™, anti-IFN-γ FITC, anti-TNF PE, and anti-IL2 APC, incubated and washed. Cells were resuspended and the entire available sample was acquired by flowcytometry. The gating strategy included progressively measuring total cells; viable cells only; lymphocytes; T cells; CD4^+ CD8^+ populations; and a specific cell type expressing a specific cytokine. Histograms were used to determine the total production of IFN-γ, IL2, and TNF for the CD4^+ and CD8^+ populations. Boolean gates were used to determine cells producing combinations of cytokines.
# In these studies, T cells containing IFN-γ, IL2, or TNFα, were gated into different subsets: IFN-γ+, IL2+, TNFα−; IFN-γ+, IL2−, TNFα+; IFN-γ+, IL2+, TNFα+; or IFN-γ+, IL2−, TNFα− T cells, and stimulated with the predicted epitopes and their parent peptide pool. The frequency of CD8^+ T cells producing total IFN-γ was far greater than CD4^+ T cell responses (FIG. 1, upper panel), which were extremely low.
# PBMC [2] = test: ELISpot IFN-γ assay, PBMC of AdPfCA / DNA prime-AdPfCA boost volunteers (Example 2); conditions: minimal epitope contained in Ap10; primarily CD8^+
# Text: To more clearly define immunological active regions of AMA1, PBMCs were isolated from AMA1 immunized volunteers. Two groups of volunteers, i.e., Gp 1 (from example 1, above) and Gp2, received 2×10^10 particle units of AdPfCA (NMRC-M3V-Ad-PfCA, NMRC+Multi-antigen Multi-stage, Malaria Vaccine+Adenovector+P. falciparum CSP & AMA1 antigens). The vaccine is a combination of two separate recombinant Ad5 constructs, one expressing full length CSP and the other expressing full length apical membrane antigen 1 (AMA1). AdPfCA expressed the AMA1 regions A1 through A12. Twenty-eight (28) days later, PBMC's were collected.
# In a third group (termed preCh in FIG. 7 and FIG. 8), fifteen volunteers were primed with three doses (2 mg/dose) with one month between doses. Sixteen weeks after the final DNA priming dose, each volunteer received 2×10^10 particle units of AdPfCA. PBMC's were collected on day 22-23 after receiving AdPfCA. […]
# The stimulation of circulating antigen-specific T cell lymphocytes was evaluated by measurement of γ-IFN induction by ELISPOT. […] Depending on availability of cells, each PBMC sample was assayed in duplicate, triplicate, or quadruplicate and the number of IFN-γ-secreting cells recognized as spot-forming cells (SFC) was enumerated using an automated ELISpot reader. […] The mean spot number of the test sample was then calculated and expressed as SFC/million PBMCs. […]
# [3] = system: CD4+ or CD8+ T cell depleted PBMC; test: ELISpot IFN-γ assay after CD4+ or CD8+ T cell depletion of PBMC (Example 1); conditions: versus control depletion
# Description: PBMC population depletion was conducted using anti-human CD4+ and anti-CD8^+ coated Dynabeads™ M-450 (Dynal, Great Neck, N.Y.) following the manufacturer's instructions. Mock depletion was done with Dynabeads coated with Sheep anti-mouse IgG. Flow cytometry confirmed that T-cell subset depletions were >99% in all experiments. The data is presented as the % effect (decrease) in activity after T cell subset depletion.
# Finally, we wanted to confirm that indeed the responses to AMA14e were mediated by CD8^+ T cells. We compared activity to AMA14e in ELISpot depletion assays and ICS CD4^+ or CD8^+ T cell IFN-γ assays with Ap1-12 and recombinant AMA1 protein with v001 and v005 (FIG. 3). CD8^+ T cell depletion reduced ELISpot activity to AMA14e by about 85% in v001 and 95% in v005.
sequence,measurement,setting,value
"RYKSHGKGY [Ep # 14, RYKSHGKGY]","ELISpot 7m, predicted 8-10 mer epitope","PBMC [1]; Vol 012, PBMC 7 months",11
same,recognition of minimal epitope in ELISpot,"PBMC [1]; v012, criteria for positive 40 SFC/million",negative
same,CD8^+ T cell IFN-γ response in ICS,CD4+ and CD8+ T cells,very weak CD8^+ IFN-γ responses
same,multifunctional CD8^+ T cell responses in ICS,CD4+ and CD8+ T cells,did not appear to induce multifunctional responses
HPKEYEYPL (listed as Plasmodium falciparum) [Ep # 9],CD8^+ T cell IFN-γ response in ICS,CD4+ and CD8+ T cells,equal or more CD8^+ IFN-γ than the parent peptide pool
NSTCRFFVCK (listed as Plasmodium falciparum),T-cell response (IFN-γ SFC),PBMC [2],significant T-cell response
FKADRYKSHGKGYNW [Ap8-6],IFN-γ ELISpot activity of individual 15 mer peptide,PBMC [1]; Volunteer 012,143 SFC/10^6
TSNNEVVVKEEYKDE [Ap10-13],IFN-γ ELISpot activity of individual 15 mer peptide,PBMC [1]; Volunteer 001,250 SFC/10^6
same,IFN-γ ELISpot activity of individual 15 mer peptide,PBMC [1]; Volunteer 012,233 SFC/10^6
same,"% effect on ELISpot activity, CD4 dep",[3]; V001,+148%
same,"% effect on ELISpot activity, CD8 dep",[3]; V001,−88%
same,"% effect on ELISpot activity, CD4 dep",[3]; V012,+14%
same,"% effect on ELISpot activity, CD8 dep",[3]; V012,−100%
LLSAFEFTYMINFGR [Ap1-3],IFN-γ ELISpot activity of individual 15 mer peptide,PBMC [1]; Volunteer 001,48 SFC/10^6
same,"% effect on ELISpot activity, CD4 dep",[3]; V001,−32%
same,"% effect on ELISpot activity, CD8 dep",[3]; V001,−56%
CEIFNVKPTCLINNS [Ap8-12],IFN-γ ELISpot activity of individual 15 mer peptide,PBMC [1]; Volunteer 005,127 SFC/10^6
EMRHFYKDNKYVKNL [Ap4-11],IFN-γ ELISpot activity of individual 15 mer peptide,PBMC [1]; Volunteer 005,65 SFC/10^6
same,ELISpot activity of 15 mer peptide,PBMC [1],65 sfc/m
ETQKCEIFNVKPTCL [Ap8-11],IFN-γ ELISpot activity of individual 15 mer peptide,PBMC [1]; Volunteer 001,48 SFC/10^6
same,IFN-γ ELISpot activity of individual 15 mer peptide,PBMC [1]; Volunteer 005,218 SFC/10^6
same,IFN-γ ELISpot activity of individual 15 mer peptide,PBMC [1]; Volunteer 008,48 SFC/10^6
TLDEMRHFY [Ep # 8],"ELISpot 4m, predicted 8-10 mer epitope","PBMC [1]; Vol 002, PBMC 4 months",51
same,CD8^+ T cell IFN-γ response in ICS,CD4+ and CD8+ T cells,equal or more CD8^+ IFN-γ than the parent peptide pool
LMSPMTLDEMRHFYK [Ap4-9],IFN-γ ELISpot activity of individual 15 mer peptide,PBMC [1]; Volunteer 002,189 SFC/10^6
same,IFN-γ ELISpot activity of individual 15 mer peptide,PBMC [1]; Volunteer 005,395 SFC/10^6
same,"% effect on ELISpot activity, CD4 dep",[3]; V005,−32%
same,"% effect on ELISpot activity, CD8 dep",[3]; V005,−100%
MTLDEMRHFYKDNKY [Ap4-10],IFN-γ ELISpot activity of individual 15 mer peptide,PBMC [1]; Volunteer 002,82 SFC/10^6
same,IFN-γ ELISpot activity of individual 15 mer peptide,PBMC [1]; Volunteer 005,118 SFC/10^6
ETQKCEIFNV (listed as Plasmodium falciparum) [Ep # 10],CD8^+ T cell IFN-γ response in ICS,CD4+ and CD8+ T cells,very weak CD8^+ IFN-γ responses
same,multifunctional CD8^+ T cell responses in ICS,CD4+ and CD8+ T cells,did not appear to induce multifunctional responses
INEHREHPKEYEYPL [Ap1-11],IFN-γ ELISpot activity of individual 15 mer peptide,PBMC [1]; Volunteer 002,180 SFC/10^6
same,IFN-γ ELISpot activity of individual 15 mer peptide,PBMC [1]; Volunteer 005,322 SFC/10^6
same,"% effect on ELISpot activity, CD4 dep",[3]; V002,−18%
same,"% effect on ELISpot activity, CD8 dep",[3]; V002,−94%
same,"% effect on ELISpot activity, CD4 dep",[3]; V005,−37%
same,"% effect on ELISpot activity, CD8 dep",[3]; V005,−100%
NQYLKDGGFAFPPTE [Ap4-5],IFN-γ ELISpot activity of individual 15 mer peptide,PBMC [1]; Volunteer 005,50 SFC/10^6
same,ELISpot activity of 15 mer peptide,PBMC [1],50 sfc/m
REHPKEYEYPLHQEH [Ap1-12],IFN-γ ELISpot activity of individual 15 mer peptide,PBMC [1]; Volunteer 002,66 SFC/10^6
same,IFN-γ ELISpot activity of individual 15 mer peptide,PBMC [1]; Volunteer 005,118 SFC/10^6
QNSDVYRPINEHREH [Ap1-9],IFN-γ ELISpot activity of individual 15 mer peptide,PBMC [1]; Volunteer 001,48 SFC/10^6
NEFPAIDLF (listed as Plasmodium falciparum) [Ep # 2],CD8^+ T cell IFN-γ response in ICS,CD4+ and CD8+ T cells,equal or more CD8^+ IFN-γ than the parent peptide pool
EDIPHVNEFPAIDLF [Ap7-3],IFN-γ ELISpot activity of individual 15 mer peptide,PBMC [1]; Volunteer 001,139 SFC/10^6
"NEVVVKEEY [Ep # 1, NEVVVKEEY]",CD8^+ T cell IFN-γ response in ICS,CD4+ and CD8+ T cells,equal or more CD8^+ IFN-γ than the parent peptide pool
HVNEFPAIDLFECNK [Ap7-4],IFN-γ ELISpot activity of individual 15 mer peptide,PBMC [1]; Volunteer 001,96 SFC/10^6
CNKLVFELSASDQPK [Ap7-7],IFN-γ ELISpot activity of individual 15 mer peptide,PBMC [1]; Volunteer 001,77 SFC/10^6
KEYEYPLHQEHTYQQ [Ap1-13],IFN-γ ELISpot activity of individual 15 mer peptide,PBMC [1]; Volunteer 001,42 SFC/10^6
same,"% effect on ELISpot activity, CD4 dep",[3]; V001,+133%
same,"% effect on ELISpot activity, CD8 dep",[3]; V001,−76%
